Reference: ChEMBL document CHEMBL2380255, “Dual targeting of adenosine A(2A) receptors and monoamine oxidase B by 4H-3,1-benzothiazin-4-ones” (J Med Chem, 2013)

Columns and labels:
[1] = Selectivity ratio of IC50 for MAO-B in mitochondria-enriched Sprague-Dawley rat liver fractions to IC50 for recombinant human MAO-B
[2] = target: T1, Amine oxidase [flavin-containing] B (Homo sapiens, UniProt P27338); assay: Inhibition of recombinant human MAO-B expressed in baculovirus-infected insect cells using p-tyramine as substrate incubated for 30 mins prior to substrate addition measured for 45 mins by amplex red reagent-based microplate fluorescence reader analysis; assay type: cell-based
T1 sequence (P27338 whole entry): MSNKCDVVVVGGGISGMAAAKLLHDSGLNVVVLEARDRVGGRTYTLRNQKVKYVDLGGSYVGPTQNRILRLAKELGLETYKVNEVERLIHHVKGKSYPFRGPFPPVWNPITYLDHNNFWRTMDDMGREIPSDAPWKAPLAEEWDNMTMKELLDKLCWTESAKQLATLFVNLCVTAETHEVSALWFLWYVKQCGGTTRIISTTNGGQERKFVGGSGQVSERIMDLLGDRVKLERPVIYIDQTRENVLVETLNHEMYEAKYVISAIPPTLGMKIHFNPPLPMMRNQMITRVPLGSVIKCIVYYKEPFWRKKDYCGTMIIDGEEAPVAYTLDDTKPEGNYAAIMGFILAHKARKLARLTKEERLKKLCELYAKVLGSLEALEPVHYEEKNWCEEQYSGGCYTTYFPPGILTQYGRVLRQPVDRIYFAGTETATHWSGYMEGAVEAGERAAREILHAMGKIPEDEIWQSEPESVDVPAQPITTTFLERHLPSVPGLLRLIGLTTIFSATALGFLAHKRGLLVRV

[3] = target: T2, Amine oxidase [flavin-containing] B (Rattus norvegicus, UniProt P19643); assay: Inhibition of MAO-B in mitochondria-enriched Sprague-Dawley rat liver fractions using p-tyramine as substrate incubated for 30 mins prior to substrate addition measured for 45 mins by amplex red reagent-based microplate fluorescence reader analysis
T2 sequence (P19643 whole entry): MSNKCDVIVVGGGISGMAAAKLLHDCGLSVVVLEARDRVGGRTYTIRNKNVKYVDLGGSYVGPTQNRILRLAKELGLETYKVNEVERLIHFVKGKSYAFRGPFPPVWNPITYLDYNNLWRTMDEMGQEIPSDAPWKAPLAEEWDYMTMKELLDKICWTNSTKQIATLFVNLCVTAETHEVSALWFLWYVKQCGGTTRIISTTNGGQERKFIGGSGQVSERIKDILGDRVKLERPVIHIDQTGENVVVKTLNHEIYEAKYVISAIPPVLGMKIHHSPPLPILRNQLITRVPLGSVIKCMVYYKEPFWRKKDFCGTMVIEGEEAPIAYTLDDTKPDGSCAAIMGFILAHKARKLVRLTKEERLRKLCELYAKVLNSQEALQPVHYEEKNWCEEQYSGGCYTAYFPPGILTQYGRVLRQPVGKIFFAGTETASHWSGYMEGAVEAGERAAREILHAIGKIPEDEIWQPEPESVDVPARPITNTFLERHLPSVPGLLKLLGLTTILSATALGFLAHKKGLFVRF

[4] = target: T3, Adenosine receptor A3 (Homo sapiens, UniProt P0DMS8); assay: Displacement of [3H]PSB-11 from human recombinant adenosine A3 receptor expressed in CHO cells after 60 mins by liquid scintillation counting analysis; assay type: cell-based
T3 sequence (P0DMS8 whole entry): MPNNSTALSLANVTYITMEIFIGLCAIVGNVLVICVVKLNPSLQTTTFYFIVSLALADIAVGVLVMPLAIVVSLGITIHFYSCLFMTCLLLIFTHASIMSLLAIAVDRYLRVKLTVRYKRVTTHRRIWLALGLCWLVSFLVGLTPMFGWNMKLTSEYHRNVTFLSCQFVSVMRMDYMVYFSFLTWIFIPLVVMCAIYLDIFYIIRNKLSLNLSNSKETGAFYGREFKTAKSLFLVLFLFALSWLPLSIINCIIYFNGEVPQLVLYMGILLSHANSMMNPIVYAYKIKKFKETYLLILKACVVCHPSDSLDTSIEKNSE

[5] = target: T4, Adenosine receptor A2b (Homo sapiens, UniProt P29275); assay: Displacement of [3H]PSB-603 from human recombinant adenosine A2B receptor expressed in CHO cells after 75 mins by liquid scintillation counting analysis; assay type: cell-based
T4 sequence (P29275 whole entry): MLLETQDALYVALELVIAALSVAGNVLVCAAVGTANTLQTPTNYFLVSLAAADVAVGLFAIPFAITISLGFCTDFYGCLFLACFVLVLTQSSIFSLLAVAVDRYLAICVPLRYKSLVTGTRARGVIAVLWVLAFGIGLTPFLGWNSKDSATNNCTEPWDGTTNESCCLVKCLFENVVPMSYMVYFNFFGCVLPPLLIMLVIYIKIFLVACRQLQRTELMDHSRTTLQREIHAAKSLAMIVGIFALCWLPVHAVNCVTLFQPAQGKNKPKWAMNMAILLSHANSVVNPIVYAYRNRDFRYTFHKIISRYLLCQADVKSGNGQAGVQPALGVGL

[6] = target: Adenosine receptor A2a (Homo sapiens, UniProt P29274); assay: Displacement of [3H]MSX2 from human recombinant adenosine A2A receptor expressed in CHO cells after 30 mins by liquid scintillation counting analysis; assay type: cell-based
Chain of Adenosine receptor A2a (Homo sapiens, UniProt P29274) (P29274 whole entry): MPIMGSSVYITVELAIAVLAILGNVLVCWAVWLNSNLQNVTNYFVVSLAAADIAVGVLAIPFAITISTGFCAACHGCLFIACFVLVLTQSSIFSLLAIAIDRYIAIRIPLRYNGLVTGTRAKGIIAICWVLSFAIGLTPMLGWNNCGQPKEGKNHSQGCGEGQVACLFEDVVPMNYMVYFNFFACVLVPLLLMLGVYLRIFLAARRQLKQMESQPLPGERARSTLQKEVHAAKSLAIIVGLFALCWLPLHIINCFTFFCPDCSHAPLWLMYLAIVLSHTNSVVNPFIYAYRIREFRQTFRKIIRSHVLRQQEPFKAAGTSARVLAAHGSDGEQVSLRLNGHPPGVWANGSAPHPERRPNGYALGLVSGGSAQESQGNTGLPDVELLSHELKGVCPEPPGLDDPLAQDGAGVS

[7] = target: T5, Adenosine receptor A1 (Homo sapiens, UniProt P30542); assay: Displacement of [3H]CCPA from human recombinant adenosine A1 receptor expressed in CHO cells after 90 mins by liquid scintillation counting analysis; assay type: cell-based
T5 sequence (P30542 whole entry): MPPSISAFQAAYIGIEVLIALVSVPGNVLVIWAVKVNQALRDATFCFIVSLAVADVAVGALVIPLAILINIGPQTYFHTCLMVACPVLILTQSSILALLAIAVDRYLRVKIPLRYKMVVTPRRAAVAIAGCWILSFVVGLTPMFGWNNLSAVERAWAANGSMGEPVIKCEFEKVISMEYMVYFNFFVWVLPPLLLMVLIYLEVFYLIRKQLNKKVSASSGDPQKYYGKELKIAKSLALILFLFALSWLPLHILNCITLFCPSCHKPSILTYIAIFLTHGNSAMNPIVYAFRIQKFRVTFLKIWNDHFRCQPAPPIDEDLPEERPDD

[8] = target: Adenosine receptor A2a (Rattus norvegicus, UniProt P30543); assay: Displacement of [3H]MSX2 from adenosine A2A receptor in rat brain striatal membranes after 30 mins by liquid scintillation counting analysis; assay type: cell membranes, Membrane
Chain of Adenosine receptor A2a (Rattus norvegicus, UniProt P30543) (P30543 whole entry): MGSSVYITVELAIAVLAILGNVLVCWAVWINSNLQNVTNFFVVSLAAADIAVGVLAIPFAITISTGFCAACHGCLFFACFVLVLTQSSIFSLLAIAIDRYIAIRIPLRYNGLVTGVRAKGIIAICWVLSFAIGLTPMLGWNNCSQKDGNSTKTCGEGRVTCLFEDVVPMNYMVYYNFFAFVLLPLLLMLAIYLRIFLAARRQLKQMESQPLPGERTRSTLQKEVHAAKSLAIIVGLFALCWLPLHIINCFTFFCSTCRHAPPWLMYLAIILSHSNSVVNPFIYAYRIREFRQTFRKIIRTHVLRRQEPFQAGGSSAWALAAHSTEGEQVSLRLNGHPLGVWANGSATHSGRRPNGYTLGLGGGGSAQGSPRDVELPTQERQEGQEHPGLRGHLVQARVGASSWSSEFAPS

[9] = target: T6, Adenosine receptor A1 (Rattus norvegicus, UniProt P25099); assay: Displacement of [3H]CCPA from adenosine A1 receptor in rat brain cortical membranes after 90 mins by liquid scintillation counting analysis; assay type: cell membranes, Membrane
T6 sequence (P25099 whole entry): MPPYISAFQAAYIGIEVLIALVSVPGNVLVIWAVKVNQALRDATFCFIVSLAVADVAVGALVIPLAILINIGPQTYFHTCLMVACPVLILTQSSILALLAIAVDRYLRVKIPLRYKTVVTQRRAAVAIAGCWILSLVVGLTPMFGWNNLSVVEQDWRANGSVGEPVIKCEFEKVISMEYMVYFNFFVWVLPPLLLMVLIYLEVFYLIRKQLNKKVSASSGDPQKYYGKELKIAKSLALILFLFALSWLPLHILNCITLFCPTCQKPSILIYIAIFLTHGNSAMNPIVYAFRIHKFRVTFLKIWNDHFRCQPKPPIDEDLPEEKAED

[10] = species: Homo sapiens; assay: Selectivity ratio of Ki for human recombinant adenosine A3 receptor to Ki for human recombinant adenosine A2A receptor
[11] = species: Homo sapiens; assay: Selectivity ratio of Ki for human recombinant adenosine A2B receptor to Ki for human recombinant adenosine A2A receptor

| SMILES | Ratio IC50 [1] | IC50 [2] | IC50 [3] | Ki [4] | Ki [5] | Ki [6] | Ki [7] | Ki [8] | Ki [9] | Ratio Ki [10] | Ratio Ki [11] |
| --- | --- | --- | --- | --- | --- | --- | --- | --- | --- | --- | --- |
| O=C(C/C=C/c1ccccc1)Nc1nc2ccccc2c(=O)s1 | 1.4 | 39.8 nM | 361 nM | 158 nM | 119 nM | 118 nM | 822 nM | 814 nM | 53 nM | – | – |
| O=C(CCCc1ccccc1)Nc1nc2ccsc2c(=O)s1 | 1.4 | 206 nM | 298 nM | > 1000 nM | 547 nM | – | – | > 10000 nM | ≥ 10000 nM | – | – |
| O=C(CCc1ccccc1Br)Nc1nc2ccccc2c(=O)s1 | 31 | 2.09 nM | 64 nM | > 1000 nM | > 1000 nM | – | – | > 10000 nM | > 10000 nM | – | – |
| O=C(CCc1ccccc1F)Nc1nc2ccccc2c(=O)s1 | 65 | 11.2 nM | 725 nM | ≥ 1000 nM | 801 nM | – | – | 2190 nM | > 10000 nM | – | – |
| COCCOc1ccc(N2CCN(CCn3ncc4c3nc(N)n3nc(-c5ccco5)nc43)CC2)cc1 [PRELADENANT] | – | – | – | > 1000 nM | > 1000 nM | 0.884 nM | 295 nM | 0.66 nM | 68.7 nM | – | – |
| CN(C(=O)CCCc1ccccc1)c1nc2ccccc2c(=O)s1 | 1.4 | 53.1 nM | – | > 1000 nM | > 1000 nM | > 10000 nM | – | > 10000 nM | > 10000 nM | – | – |
| COc1cccc(CCCC(=O)Nc2nc3ccccc3c(=O)s2)c1 | 1.4 | 389 nM | 1300 nM | 382 nM | 302 nM | 115 nM | 214 nM | 558 nM | 22.5 nM | – | – |
| O=C(CCCc1ccccc1)Nc1nc2cc(Cl)ccc2c(=O)s1 | 1.4 | 76.4 nM | 1220 nM | 91.6 nM | > 1000 nM | – | 785 nM | ≥ 10000 nM | 64.4 nM | – | – |
| O=C(CCCc1ccccc1)Nc1nc2ccc(Br)cc2c(=O)s1 | 1.4 | > 10000 nM | > 10000 nM | > 1000 nM | > 1000 nM | – | – | > 10000 nM | > 10000 nM | – | – |
| O=C(Nc1nc2ccccc2c(=O)s1)c1ccc(C(=O)N2CCN(Cc3ccccc3Cl)CC2)cc1 | 1.4 | > 10000 nM | – | > 1000 nM | > 1000 nM | > 1000 nM | > 1000 nM | > 10000 nM | – | – | – |
| O=C(CCc1ccc(Cl)c(Cl)c1)Nc1nc2ccccc2c(=O)s1 | 1.4 | > 10000 nM | > 10000 nM | > 1000 nM | > 1000 nM | – | – | > 10000 nM | > 1500 nM | – | – |
| O=C(/C=C/c1cccc(Cl)c1)Nc1nc2ccccc2c(=O)s1 | 1.4 | 93.3 nM | 815 nM | > 1000 nM | > 1000 nM | > 1000 nM | – | > 10000 nM | ≥ 10000 nM | – | – |
| O=C(CCCc1ccc(Cl)c(Cl)c1)Nc1nc2ccccc2c(=O)s1 | – | 3440 nM | 3300 nM | > 1000 nM | > 1000 nM | – | – | > 10000 nM | > 1500 nM | – | – |
| Cc1sc2nc(NC(=O)CCCc3ccccc3)sc(=O)c2c1C | 1.4 | 9.8 nM | 26.6 nM | > 1000 nM | > 1000 nM | – | – | > 10000 nM | > 10000 nM | – | – |
| O=C(C/C=C/c1ccc(Cl)c(Cl)c1)Nc1nc2ccccc2c(=O)s1 | – | > 10000 nM | 4640 nM | > 1000 nM | > 1000 nM | – | – | > 1000 nM | ≥ 1500 nM | – | – |
| COc1cccc(/C=C/C(=O)Nc2nc3ccccc3c(=O)s2)c1 | – | 470 nM | 281 nM | > 1000 nM | 679 nM | 62.4 nM | > 10000 nM | 253 nM | 205 nM | > 16 | 10 |
| O=C(CCCc1ccccc1)Nc1nc2ccc(Cl)cc2c(=O)s1 | 1.4 | > 10000 nM | > 10000 nM | > 1000 nM | > 1000 nM | – | – | > 10000 nM | > 10000 nM | – | – |
| O=C(Nc1nc2ccccc2c(=O)s1)c1ccc(C(=O)N2CCN(Cc3cccc(Cl)c3)CC2)cc1 | 1.4 | > 10000 nM | – | > 1000 nM | > 1000 nM | 58.3 nM | > 1000 nM | 84.7 nM | – | – | – |
| O=C(Nc1nc2ccccc2c(=O)s1)c1ccc(C(=O)N2CCN(Cc3ccccc3)CC2)cc1 | 1.4 | > 10000 nM | – | – | – | – | – | – | – | – | – |
| O=C(Nc1nc2ccccc2c(=O)s1)c1ccccc1 | 1.4 | – | > 10000 nM | – | – | – | – | – | – | – | – |
| Cc1ccc2nc(NC(=O)CCCc3ccccc3)sc(=O)c2c1 | 1.4 | 94 nM | 325 nM | 147 nM | 408 nM | – | 1000 nM | 6060 nM | 98.3 nM | – | – |
| O=C(CCCc1cccc(Cl)c1)Nc1nc2ccccc2c(=O)s1 | 1.4 | > 1000 nM | 6880 nM | > 1000 nM | ≥ 1000 nM | – | > 10000 nM | > 10000 nM | 898 nM | – | – |
| COc1cccc(C#CC(=O)Nc2nc3ccccc3c(=O)s2)c1 | 1.4 | 43.7 nM | 73.9 nM | > 1000 nM | > 1000 nM | ≥ 1000 nM | – | 1720 nM | > 10000 nM | – | – |
